Here are results for six compounds from patent US10774084B2, “Adenine derivatives and their use as UV-photoprotective agents” (UNIVERZITA PALACKEHO V OLOMOUCI, priority 2015, dated 2020).

Usually GI50 stands for the concentration that inhibits growth by half.

Each structure is given as a SMILES string.

Series [1] concerns HaCaT. Put plainly: Calcein AM cytotoxicity assay. It counts as cell-based. To be noted: Homo sapiens, 72 hrs. The source says: (§1) One of the parameters used as the base for cytotoxic analysis is metabolic activity of viable cells. Microtiter assay, which uses the Calcein AM, is now widely used to quantify cell proliferation and cytotoxicity. The quantity of […] Calcein AM corresponds to the number of viable cells in culture. The cell lines of breast cancer (MCF-7), human erythromleukemia (K562), BJ human fibroblast cells (BJ) and human keratinocyte cell line (HaCaT) were used for routine screening of cytotoxicity of the compounds. The cells were maintened in Nunc/Corning 80 cm^2 plastic bottles and grown in media for cell culture (DMEM containing 5 g/l of glucose, 2 mM of glutamin, 100 U/ml of penicilin, 100 μg/ml of streptomycin, 10% of fetal bovine serum and sodium hydrogencarbonate). Cell suspensions were diluted according to cell types and according to expected final cell density (10^4 of cells per well according to characteristics of cell growth), pippeted 80 μl of cell suspension on 96-well microtiter plates. Innoculates were stabilized by 24 hrs preincubation at 37° C. in CO2. Particular concentrations of tested compounds were added in time zero as 20 μl aliquotto wells of microtiter plates. Usually, the compounds were diluted into six concentrations in four-fold dilution series. In routine testing, the highest well concentration was 166.7 μM, of change dependent on the substance. All drug concentrations were examined in duplicates. The incubation of cells with tested derivatives lasted 72 hrs at 37° C., 100% humidity and in the atmosphere of CO2. At the end of the incubation period, the cells were tested and analysed according to the addition of Calcein AM (Molecular probes) solution and the incubation lasted for next 1 hour. Fluorescence (FD) was measured using Labsystem FIA reader Fluorskan Ascent (Microsystems). The survival of tumor cells (The tumor cell survival-TCS) was counted according to equation: […](FDwell with derivative/FDcontrol well)×100%. The value of GI50, that is equal to the concentration of compound at which 50% of tumour cells are terminated. To evaluate the antitumor activity was tested toxicity of new derivatives on panel of cell lines of different histogenetic and species origin (Tab. 6, G150 concentration given in μM). […] Effective derivatives killed tumor cells in concentrations close to 0.1 to 50. None of the newly prepared compounds only reached the value.

The subject of series [2] is BJ human fibroblast cells. As to the kind of experiment: Calcein AM cytotoxicity assay. It counts as cell-based. To be noted: 72 hrs.
Excerpt: as §1

For a further series, the system named is MCF-7. As to the kind of experiment: Calcein AM cytotoxicity assay. In kind it is cell-based. To be noted: Homo sapiens, MCF7, 72 hrs.
Excerpt: as §1

Another series concerns K562. Put plainly: Calcein AM cytotoxicity assay. To be noted: Homo sapiens, 72 hrs. In kind it is cell-based.
Excerpt: as §1

For series [3], the system named is HaCaT. As to the kind of experiment: In vitro phototoxicity test (neutral red) on HaCaT. It counts as cell-based, human. How it is done: Spontaneously Immortalized Aneuploid Human Keratinocyte Cell Line (HaCaT) was bought from CLS (Eppeheim, Germany) and used as an in vitro model. For all experiments the keratinocytes were seeded onto 96-well plates at a density of 1.6×10^5 cells/ml (0.2 ml per well) of growth medium (DMEM supplemented with fetal bovine serum (10%), penicillin ([…]) and streptomycin (100 U/ml)).
Test substances included compounds number 3, 9, 15 and 20. Compounds were dissolved in DMSO and then diluted in serum free medium (DMEM supplemented penicillin (100 mg/ml) and streptomycin (100 U/ml)). After 24 h incubation was growth medium changed to serum free medium containing test compound or DMSO (negative control). The final applied concentrations range was 3.9-125 μmol/l. As a control, serum free medium supplemented with appropriate concentration of DMSO (0.5%, v/v) was used. In parallel with test compound, chlorpromazine (CPZ; 0.8-50 μmol/l) was used as a known phototoxic compound. The test compound was in parallel applied on two 96-well plates with HaCaT. After 60 minutes incubation with test compound medium was discarded, cells were washed two-times with PBS and PBS supplemented with glucose (1 mg/ml) was applied. A plate was then exposed to a non-cytotoxic dose of UVA radiation (5.0 J/cm2) using a solar simulator SOL 500 (Dr. Hoenle Technology, Germany) equipped with a H1 filter transmitting wavelengths of 320-400 nm. Intensity of UVA radiation was evaluated before each irradiation by UVA-meter. A control (non-irradiated) plate was for the period of irradiation incubated in dark. After UVA exposure PBS with glucose was discarded and serum free medium was applied. After 24 hours (37° C., 5% CO2) cell damage was evaluated by neutral red (NR) incorporation into viable cells. Medium was discarded and NR solution (0.03% w/v, PBS) was applied. After 60 minutes NR solution was discarded, cells were fixed with a mixture of formaldehyde (0.5%, v/v) and CaCl2 (1%, m/v) in ratio 1:1 and then NR was dissolved in methanol (50%, v/v) with acetic acid (1%, v/v). After 5 minutes of intensive shaking absorbance was measured at 540 nm. Experiments were performed in four independent repetition with use of cells from four donors to minimize individual sensitivity of donor cells. Phototoxic effect was evaluated as % of viability of control cells that was calculated from experimental data (absorbance) according to the following equation: […]
AS . . . absorbance of sample (cells pre-incubated with test compound in serum free medium and irradiated)
AC . . . absorbance of control (cells pre-incubated with DMSO in serum free medium and irradiated)
AB . . . absorbance of background (extraction solution)

On to `c1nc(NCC2CCCO2)c2ncn(C3CCCO3)c2n1` (centres unmarked) [Compound 1, 6-(tetrahydrofuran-2-ylmethylamino)-9-(tetrahydrofuran-2-yl)purine], for which the GI50 (in the series with HaCaT [1]; in series [2]; with MCF-7; in the series on K562) was greater than 100 µM each time.

In the case of `OCc1ccc(CNc2ncnc3c2ncn3C2CCCO2)o1` (centres unmarked) [Compound 3, 6-(5-hydroxymethylfuran-2-ylmethylamino)-9-(tetrahydrofuran-2-yl)purine], the HaCaT viability in the series on HaCaT [3] (+UVA 5.0 J/cm2, 3.9 μmol/l) came out at 103.88 % control; with HaCaT [3] (+UVA 5.0 J/cm2, 7.8 μmol/l) it was 111.08 % control; in the series on HaCaT [3] (+UVA 5.0 J/cm2, 15.6 μmol/l), 107.93 % control; in the series on HaCaT [3] (+UVA 5.0 J/cm2, 31.3 μmol/l), 118.43 % control; in the series with HaCaT [3] (+UVA 5.0 J/cm2, 62.5 μmol/l) it was 120.78 % control; in the series on HaCaT [3] (+UVA 5.0 J/cm2, 125 μmol/l) it was 124.66 % control. In addition, the HaCaT viability was 100.1 % control in the series with HaCaT [3] (−UVA, 3.9 μmol/l); 100.4 % control in the series with HaCaT [3] (−UVA, 7.8 μmol/l); 102.1 % control in the series with HaCaT [3] (−UVA, 15.6 μmol/l); 107.8 % control in the series on HaCaT [3] (−UVA, 31.3 μmol/l); 106.4 % control with HaCaT [3] (−UVA, 62.5 μmol/l); 109.5 % control in the series with HaCaT [3] (−UVA, 125 μmol/l).

As to `c1csc(CNc2ncnc3c2ncn3C2CCCO2)c1` (centres unmarked) [Compound 9, 6-(thiophen-2-ylmethylamino)-9-(tetrahydrofuran-2-yl)purine], the HaCaT viability is recorded as 122.7 % control with HaCaT [3] (+UVA 5.0 J/cm2, 3.9 μmol/l); 124.2 % control in the series with HaCaT [3] (+UVA 5.0 J/cm2, 7.8 μmol/l); 120.5 % control with HaCaT [3] (+UVA 5.0 J/cm2, 15.6 μmol/l); 128.1 % control with HaCaT [3] (+UVA 5.0 J/cm2, 31.3 μmol/l); 129.9 % control in the series on HaCaT [3] (+UVA 5.0 J/cm2, 62.5 μmol/l); 126.6 % control in the series on HaCaT [3] (+UVA 5.0 J/cm2, 125 μmol/l). The HaCaT viability in the series with HaCaT [3] (−UVA, 3.9 μmol/l) worked out at 101 % control; in the series with HaCaT [3] (−UVA, 7.8 μmol/l), 101.1 % control; in the series on HaCaT [3] (−UVA, 15.6 μmol/l), 100.4 % control; in the series with HaCaT [3] (−UVA, 31.3 μmol/l), 101.8 % control; in the series on HaCaT [3] (−UVA, 62.5 μmol/l), 103.9 % control; in the series with HaCaT [3] (−UVA, 125 μmol/l), 103.4 % control. In addition, the concentration for 50% growth inhibition (GI50) (in the series on HaCaT [1]; in series [2]; with MCF-7; in the series with K562) was greater than 100 µM throughout.

For `Clc1nc(NCc2ccco2)c2ncn(C3CCCO3)c2n1` (centres unmarked) [Compound 15, 2-chloro-6-furfurylamino-9-(tetrahydrofuran-2-yl)purine], the HaCaT viability in the series on HaCaT [3] (+UVA 5.0 J/cm2, 3.9 μmol/l) worked out at 116.4 % control; in the series on HaCaT [3] (+UVA 5.0 J/cm2, 7.8 μmol/l), 119.9 % control; with HaCaT [3] (+UVA 5.0 J/cm2, 15.6 μmol/l), 119.9 % control; in the series with HaCaT [3] (+UVA 5.0 J/cm2, 31.3 μmol/l), 118.8 % control; in the series with HaCaT [3] (+UVA 5.0 J/cm2, 62.5 μmol/l), 115.7 % control; in the series with HaCaT [3] (+UVA 5.0 J/cm2, 125 μmol/l), 104 % control. Also, the HaCaT viability in the series with HaCaT [3] (−UVA, 3.9 μmol/l) is 106.5 % control; in the series on HaCaT [3] (−UVA, 7.8 μmol/l) it was 107.4 % control; in the series with HaCaT [3] (−UVA, 15.6 μmol/l), 108.6 % control; with HaCaT [3] (−UVA, 31.3 μmol/l), 108.6 % control; in the series with HaCaT [3] (−UVA, 62.5 μmol/l), 109.2 % control; in the series with HaCaT [3] (−UVA, 125 μmol/l), 105 % control.

As to `Clc1nc(NCC2CCCO2)c2ncn(C3CCCO3)c2n1` (centres unmarked) [Compound 20, 2-chloro-6-(tetrahydrofuran-2-ylmethylamino)-9-(tetrahydrofuran-2-yl)purine], the HaCaT viability in the series on HaCaT [3] (+UVA 5.0 J/cm2, 3.9 μmol/l) came to 104.6 % control; in the series with HaCaT [3] (+UVA 5.0 J/cm2, 7.8 μmol/l) it was 112.1 % control; in the series on HaCaT [3] (+UVA 5.0 J/cm2, 15.6 μmol/l), 110.1 % control; in the series with HaCaT [3] (+UVA 5.0 J/cm2, 31.3 μmol/l) it was 121.4 % control; in the series on HaCaT [3] (+UVA 5.0 J/cm2, 62.5 μmol/l), 125.8 % control; in the series on HaCaT [3] (+UVA 5.0 J/cm2, 125 μmol/l) it was 125.9 % control. Besides, the HaCaT viability in the series on HaCaT [3] (−UVA, 3.9 μmol/l) worked out at 103.5 % control; with HaCaT [3] (−UVA, 7.8 μmol/l), 102.9 % control; in the series with HaCaT [3] (−UVA, 15.6 μmol/l), 104.1 % control; in the series with HaCaT [3] (−UVA, 31.3 μmol/l), 108.6 % control; in the series with HaCaT [3] (−UVA, 62.5 μmol/l) it was 110.7 % control; with HaCaT [3] (−UVA, 125 μmol/l), 110.5 % control. Moreover, the GI50 (in the series on HaCaT [1]; in series [2]; in the series on MCF-7; in the series on K562) was greater than 100 µM in each case.

In the case of `CN(C)CCCN1c2ccccc2Sc2ccc(Cl)cc21` [chlorpromazine, reference compound], the “viability of HaCaT cells” value was “below 80 % of control” in the series on HaCaT [3] (UVA+, 3.1 μmol/l) and “below 70%” with HaCaT [3] (UVA−, 25 μmol/l).
